{
  "source": "patent EP1096004B1",
  "about": "“Pro-fragrance compounds” (THE PROCTER & GAMBLE COMPANY, priority 1996, dated 1997)",
  "assay": "Pro-Fragrant Hydrolysis Test (hydrolysis half-life by UV/Vis spectroscopy)",
  "format": "physicochemical",
  "details": "acid hydrolysis at pH 0 (1N HCl), 90/10 dioxane/water, 30°C",
  "description": "Hydrolysis half-life is the measurement used to determine the ease with which the pro-fragrance compound undergoes acid hydrolysis and thereby releases its fragrance component(s) upon exposure to acid conditions. […] Preferably, pro-fragrance of the invention has a half-life at pH 2 of less than 60 minutes. For granular detergents, the more reactive pro-fragrances, that is, those with half-life at […] of less than one minute, are most suitable, although those having a half-life of less than 60 minutes at pH 0 are also useful. […]\nAll measurements are carried out using a Hewlett Packard 8452 A Diode Array Spectrophotometer using quartz 1 cm path length cuvette cells. […] The pH's are measured using an Orion 230 A standardized with pH 4 and pH 7 buffers. […]\nPro-fragrance is weighed out in a 10.00 ml volumetric flask using an analytical balance (Mettler AE 200) Precision is 1/10 mg. […] Hydrolysis time is measured, starting upon addition of the acid. […] The absorbance of the pro-fragrance solution (At) is followed at a regular series of time intervals, and the cuvette is kept in the water-bath at the above-indicated temperature between measurements. […] The wavelength at which the hydrolysis is followed is chosen at the wavelength of the absorbance maximum of the parent aldehyde or ketone.\nReaction half-lifes are determined using conventional procedures. […]",
  "data": [
    {"compound": "CC(C)=CCCC(C)=CC(OC/C=C(\\C)CCC=C(C)C)OC/C=C(\\C)CCC=C(C)C", "note": "[Example 1, Digeranyl Citral Acetal]", "values": [
      {"measurement": "t 1/2 at 0 pH", "value": "less than one"}
    ]}
  ]
}
